Data: publication PMC2424174, “Suppression of Tumor Growth and Angiogenesis by a Specific Antagonist of the Cell-Surface Expressed Nucleolin” (PLoS ONE, 2008)
Marks after values point to notes of the source that are not given here. Values belong to the compound of their own block, whether it stands above or below them.

How the values were obtained:
surface nucleolin [1] = experiment: Complex of HB-19/Btn with surface nucleolin, HUVECs, avidin-agarose and immunoblot; type: binding, human; conditions: 45 min, 20°C, 0-12 µM HB-19/Btn
Experimental: Figure 3 Specific binding and entry of HB-19 in endothelial cells. (A) HB-19/Btn forms a stable complex with nucleolin expressed on the surface of HUVECs. Cells were incubated (45 min, 20°C) with 0, 1, 2, 4, 8 and 12 µM of HB-19/Btn before preparation of surface/cytoplasmic and nuclear extracts and recovery of surface nucleolin from the surface/cytoplasmic extracts as in Figure 2A. Material extracted from 2×10^7 and 2×10^6 cells was analyzed in panels Surface and Surface/Cytoplasm or Nucleus, respectively. Immunoblotting was with the anti-nucleolin mAb D3. (B) The specific binding of HB-19/Btn to HUVECs. The binding of 1 µM HB-19/Btn was studied at 4 °C by FACScan analysis. To show the specificity of binding, the reaction was carried out in the absence or presence of 50 µM HB-19, F3, or 9Arg peptides. The ordinate gives the relative cell number, whereas the abscissa gives the relative fluorescence intensity. (C) HB-19 entry in HUVECs. Cells were incubated with 5 µM of HB-19/Btn (1 hour, 37°C) before fixation in PFA (for surface binding) or PFA-Triton (for entry), respectively. […]
Cells were passaged in DMEM culture medium containing 10% FCS in 75 cm^2 flasks. […] The purified surface nucleolin was eluted in the electrophoresis sample buffer containing SDS and analyzed by SDS–polyacrylamide gel electrophoresis (PAGE).

surface nucleolin [2] = experiment: Complex of HB-19/Btn with surface nucleolin, MDA-MB-231 cells, avidin-agarose and immunoblot; type: binding, human; conditions: 45 min, 20°C, 0-12 µM HB-19/Btn
Experimental: Figure 2 HB-19 binds nucleolin expressed on the surface of tumor cells and causes reduction of cytoplasmic/surface but not nuclear nucleolin. (A) HB-19/Btn forms a stable complex with nucleolin expressed on the surface of cells. MDA-MB-231 cells were incubated (45 min, 20°C) with 0, 1, 2, 4, 8 and 12 µM of HB-19/Btn before preparation of surface/cytoplasmic (i.e., nucleus-free) and nuclear extracts, [28]. Samples of surface nucleolin (purified using surface/cytoplasmic extracts from 2×10^7 cells) and crude surface/cytoplasmic and nuclear extracts (from 2×10^6 cells) were analyzed by immunoblotting for the detection of nucleolin using mAb D3. (B) Specific reduction of surface/cytoplasmic nucleolin in HB-19 treated cells. […] Material from 2×10^6 cells (Untreated or HB-19 treated cells as indicated − or + signs, respectively) was analyzed by immunoblotting for the detection of nucleolin. […] The intensity of nucleolin protein bands quantified by using the NIH image software indicated 75% and 93% reduction of surface/cytoplasmic nucleolin in HB-19 treated cells at 24 and 48 hours, respectively, compared to the corresponding untreated cells. […] MDA-MB-231 cells cultured in the absence (Control Cells) or presence of 10 µM of HB-19 for 48 hours (HB-19 Treated Cells) were fixed in PFA-Triton and processed for fluorescence microscopy. […]

[3] = tested on: cells (surface nucleolin); conditions: cited from earlier work
Source text: The importance of cell-surface nucleolin in cancer biology is highlighted by many studies showing that ligands of nucleolin play critical role in tumorigenesis and angiogenesis, [16]. For example, among surface nucleolin binding growth factors: midkine and PTN can transform cells, whereas on endothelial cells they exert both mitogenic and angiogenic effect. Laminin-1 that induces differentiation of cells binds surface nucleolin, while urokinase that is implicated in mechanisms regulating pericellular proteolysis, cell-surface adhesion, and mitogenesis binds and is co-internaliz ... || Previously, guanosine-rich phosphodiester oligonucleotides (referred to as GROs) and endostatin have been reported to exert antitumoral and antiangiogenic activity, respectively, through interaction with surface nucleolin [21], [41], [42]. […] At 20°C, GRO ...

nucleolin = conditions: cited from earlier work
Source text: HB-19 presents pentavalently the tripeptide Kψ(CH2N)PR in which the reduced peptide bond provides high stability against serum proteases (Figure 1). HB-19 forms a stable complex with the cell-surface expressed nucleolin and is internalized by an active process. This le ... || The interaction of HB-19 with surface nucleolin was investigated using human breast cancer MDA-MB-231 tumor cells and human umbilical vein endothelial cells (HUVECs). […] Similarly, HB-19/Btn binds and forms a stable complex with surface nucleolin in a dose-dependent manner in both types of cell ... || Previously, guanosine-rich phosphodiester oligonucleotides (referred to as GROs) and endostatin have been reported to exert antitumoral and antiangiogenic activity, respectively, through interaction with surface nucleolin [21], [41], [42]. […] At 20°C, GRO ... || (+ 1 further places)

tumor cells = conditions: cited from earlier work
Experimental: (§1) Previously, guanosine-rich phosphodiester oligonucleotides (referred to as GROs) and endostatin have been reported to exert antitumoral and antiangiogenic activity, respectively, through interaction with surface nucleolin [21], [41], [42]. […] At 20°C, GRO ...

nuclear nucleolin = conditions: cited from earlier work
Experimental: as §1

[4] = tested on: MDA-MB-231 tumor-cell xenografts; experiment: MDA-MB-231 xenograft in nude mice; type: in vivo, human; conditions: tamoxifen 10 mg/kg, peritumoral, 3 times/week, 6 weeks, n = 5
Experimental: (§2) Figure 8 HB-19 inhibits tumor growth in the nude mice. (A) HB-19 inhibits the growth of MDA-MB-231 tumor-cell xenografts. Cells (2×10^6) were injected subcutaneously into the right flank of female nude mice. Two weeks later, mice with a palpable tumor of approximately 40 mm^3 in volume were randomly separated into three groups (n = 5) and were given peritumoral injections 3 times/week of 0.1 ml PBS alone (Control), HB-19 (5 mg/kg), or Tamoxifen (Tmx) 10 mg/kg) for 6 weeks. (B) HB-19 inhibits the growth of MDA-MB-435 tumor-cell xenografts. Cells (1×10^6) were injected in the mammary fat pad of female nude mice. Two weeks later, mice with a palpable tumor were randomly separated into three groups (n = 10) and were given intraperitoneal injections 3 times/week of 0.1 ml PBS alone (Control), HB-19 (5 mg/kg), or 5-fluouracil (5-FU, 40 mg/kg) for 8 weeks. At the end of each experiment (in A and B), mice were sacrificed and the tumors were excised and weighed. The results are presented as the mean weight ±standard deviation (±S.D.) obtained from the number of mice in each group. (C, D) Inhibition of tumor development in mice treated by intraperitoneal (i.p.) and subcutaneous (s.c.) administration of HB-19. MDA-MB-231 tumor bearing mice in three groups (n = 10) were treated with HB-19 (10 mg/kg) by i.p. or s.c. injections, 3 times/week for 28 days. […] Statistical significance: *p<0.05, **p<0.01, ***p<0.001.

[5] = tested on: CD31 endothelial marker in tumors; experiment: Tumor vascularization, CD31 immunohistochemistry; type: in vivo, mouse; conditions: CD31 staining; HB-19 5 mg/kg or 5-FU 40 mg/kg, intraperitoneal, 8 weeks; compared to untreated tumors
Experimental: Figure 9 Reduced density of blood vessels in HB-19 treated tumor-bearing mice. Sections of tumors recovered from mice, untreated control and treated with either HB-19 or 5-FU (experiment described in Figure 8B) were stained with antibodies against the CD31 endothelial marker and analyzed by fluorescence microscopy. […] Angiogenesis was quantified by image analysis of CD31-labeled endothelial cells.
Immediately after surgical resection, tumors, were frozen in liquid nitrogen and fixed for 20 min in acetone at 4°C or fixed with 4% PFA for paraffin inclusion. The sections of 8 µm were re-hydrated and saturated in PBS containing 1% BSA and 2% normal goat serum. To visualize tumor endothelial cells, sections were incubated with a Rat anti-mouse CD31 monoclonal antibody (1∶50) in saturation buffer 1 hour at room temperature. After two washes in PBS, sections were incubated for 1 hour at room temperature with biotinylated goat anti-Rat IgG (1∶1000 dilution; Chemicon International Inc., Temecula, CA) in saturation buffer, followed by three washes in PBS and incubation with the avidin-biotinylated-alkaline phosphatase complex (Vector Laboratories). […] Angiogenesis was quantified by Image analysis of CD31-labeled endothelial cells. The EC density in each field was expressed as the ratio of EC area/total area examined ×100 (%). […]

[6] = tested on: MDA-MB-435 tumor-cell xenografts; experiment: MDA-MB-435 xenograft in nude mice; type: in vivo, human; conditions: 5-FU 40 mg/kg, intraperitoneal, 3 times/week, 8 weeks, n = 10
Experimental: Figure 8 HB-19 inhibits tumor growth in the nude mice. (A) HB-19 inhibits the growth of MDA-MB-231 tumor-cell xenografts. Cells (2×10^6) were injected subcutaneously into the right flank of female nude mice. Two weeks later, mice with a palpable tumor of approximately 40 mm^3 in volume were randomly separated into three groups (n = 5) and were given peritumoral injections 3 times/week of 0.1 ml PBS alone (Control), HB-19 (5 mg/kg), or Tamoxifen (Tmx) 10 mg/kg) for 6 weeks. (B) HB-19 inhibits the growth of MDA-MB-435 tumor-cell xenografts. Cells (1×10^6) were injected in the mammary fat pad of female nude mice. Two weeks later, mice with a palpable tumor were randomly separated into three groups (n = 10) and were given intraperitoneal injections 3 times/week of 0.1 ml PBS alone (Control), HB-19 (5 mg/kg), or 5-fluouracil (5-FU, 40 mg/kg) for 8 weeks. At the end of each experiment (in A and B), mice were sacrificed and the tumors were excised and weighed. The results are presented as the mean weight ±standard deviation (±S.D.) obtained from the number of mice in each group. (C, D) Inhibition of tumor development in mice treated by intraperitoneal (i.p.) and subcutaneous (s.c.) administration of HB-19. MDA-MB-231 tumor bearing mice in three groups (n = 10) were treated with HB-19 (10 mg/kg) by i.p. or s.c. injections, 3 times/week for 28 days. […]

[7] = Blood cell count in tumor bearing mice; type: in vivo, mouse; conditions: 3 times/week, 8 weeks
Experimental: as §2
Blood samples were collected by cardiac puncture. Hematocrit level, white blood cells and platelets count were determined individually in whole blood anticoagulated with EDTA (1 mM) at room temperature. Blood cell count was analyzed with an automated flow cytometric blood cell counter (Cell-Dyn 3500, Abbott Laboratories, Rungis, France).

concentration of maximum binding to surface nucleolin (surface nucleolin [1]): 8 to 12 µM
Compound: H2NLys-Lys-Lys-Gly-Pro-Lys-Glu-Lys-βAla-Lys(Btn)-βAlaCONH2 [HB-19/Btn, biotinylated HB-19 for recovery of surface nucleolin]
concentration of maximum binding to surface nucleolin (surface nucleolin [2]): 8 to 12 µM

Compound: endostatin
internalization [3]: binds nucleolin on the surface of endothelial cells before translocation to the nucleus
heparan sulfate proteoglycan requirement of binding to surface nucleolin (nucleolin): endostatin but not HB-19 binding to surface nucleolin requires heparan sulfate proteoglycans
direct effect on tumor cell growth (tumor cells): does not directly affect tumor cell growth
phosphorylation of nuclear nucleolin (nuclear nucleolin): inhibits phosphorylation of nuclear nucleolin

Compound: CC/C(=C(\c1ccccc1)c1ccc(OCCN(C)C)cc1)c1ccccc1 [tamoxifen, reference compound]
reduction of tumor mass [4]: 80%

reduction in the number of lymphocytes ([7]; 5-FU 40 mg/kg, intraperitoneal): 55%
Eosinophils ([7]; HB-19 5 mg/kg or 5-FU 40 mg/kg i.p., mean ± SD, n = 10, untreated 0.01±0.02): 0.05±0.04 ×10^3/µl
Basophils ([7]; HB-19 5 mg/kg or 5-FU 40 mg/kg i.p., mean ± SD, n = 10, untreated 0.10±0.06): 0.10±0.04 ×10^3/µl
Monocytes ([7]; HB-19 5 mg/kg or 5-FU 40 mg/kg i.p., mean ± SD, n = 10, untreated 0.20±0.09): 0.22±0.09 ×10^3/µl
Neutrophils ([7]; HB-19 5 mg/kg or 5-FU 40 mg/kg i.p., mean ± SD, n = 10, untreated 0.89±0.39, 5-FU p<0.05): 0.53±0.15 * ×10^3/µl
Lymphocytes ([7]; HB-19 5 mg/kg or 5-FU 40 mg/kg i.p., mean ± SD, n = 10, untreated 1.84±0.78, 5-FU p<0.01): 0.83±0.22 ** ×10^3/µl
Leukocytes ([7]; HB-19 5 mg/kg or 5-FU 40 mg/kg i.p., mean ± SD, n = 10, untreated 3.05±1.29, 5-FU p<0.05): 1.73±0.37 * ×10^3/µl
Erythrocytes ([7]; HB-19 5 mg/kg or 5-FU 40 mg/kg i.p., mean ± SD, n = 10, untreated 8.73±0.26, 5-FU p<0.0001): 7.60±0.30*** ×10^6/µl
Platelets ([7]; HB-19 5 mg/kg or 5-FU 40 mg/kg i.p., mean ± SD, n = 10, untreated 1041±91): 1042±59 ×10^3/µl
Compound: O=c1[nH]cc(F)c(=O)[nH]1 [5-FU, 5-fluouracil]
inhibition of tumor vascularization [5]: significantly inhibited tumor vascularization
inhibition of tumor growth [6]: 66%
leucopenia ([7]; 5-FU 40 mg/kg, intraperitoneal): toxic causing a significant degree of leucopenia
